Assay results from US8258134B2, “Pyridazinone glucokinase activators” (Hoffmann-La Roche Inc., priority 2008, dated 2012).

Target: T1, Recombinant human liver GK1 (GST-GK) (Homo sapiens, UniProt P35557)
T1 construct: made in house; host or cells: E. coli
T1 sequence (P35557 1-466 isoform P35557-2): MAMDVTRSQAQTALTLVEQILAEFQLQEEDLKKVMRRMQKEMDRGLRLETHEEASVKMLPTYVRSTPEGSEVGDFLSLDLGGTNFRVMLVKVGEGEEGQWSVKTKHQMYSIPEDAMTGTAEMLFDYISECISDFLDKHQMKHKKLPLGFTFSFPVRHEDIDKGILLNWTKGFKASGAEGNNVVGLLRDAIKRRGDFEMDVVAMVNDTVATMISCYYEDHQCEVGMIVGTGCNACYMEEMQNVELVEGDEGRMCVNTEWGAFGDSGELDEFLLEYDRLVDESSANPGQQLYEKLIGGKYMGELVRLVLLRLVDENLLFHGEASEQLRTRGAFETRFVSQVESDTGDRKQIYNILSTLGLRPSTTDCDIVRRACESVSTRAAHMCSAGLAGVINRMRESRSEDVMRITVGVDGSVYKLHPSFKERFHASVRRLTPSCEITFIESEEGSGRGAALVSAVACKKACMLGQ
Experiment: Glucokinase in vitro assay (G6PDH-coupled NADH generation, OD340)
Type: biochemical
Settings: 5 mM D-glucose; for SC1.5 average (concentration of activator that produced a 50% increase in the activity of GK): 30° C., pH 7.1, 10% DMSO
Protocol: Glucokinase In Vitro Assay Protocol: Glucokinase (GK) was assayed by coupling the production of glucose-6-phosphate to the generation of NADH with glucose-6-phosphate dehydrogenase (G6PDH, 0.75-1 k units/mg; Boehringer Mannheim, Indianapolis, Ind.) from Leuconostoc mesenteroides as the coupling enzyme (Scheme 2):
Recombinant human liver GK1 was expressed in E. coli as a glutathione S-transferase fusion protein (GST-GK) [Liang et al, 1995] and was purified by chromatography over a glutathione-Sepharose 4B affinity column using the procedure provided by the manufacturer (Amersham Pharmacia Biotech, Piscataway, N.J.).
The assay was conducted at 30° C. in a flat bottom 96-well tissue culture plate from Costar (Cambridge, Mass.) with a final incubation volume of 120 μL. The incubation reaction contained the following: 25 mM Hepes buffer (pH 7.1), 25 mM KCl, 5 mM D-glucose, 1 mM ATP, 1.8 mM NAD, 2 mM MgCl2, 1 μM sorbitol-6-phosphate, 1 mM dithiothreitol, test drug or 10% DMSO, ˜7 units/ml G6PDH, and GK (see below). All organic reagents were >98% pure and were from Boehringer Mannheim with the exceptions of D-glucose and Hepes which were from Sigma Chemical Co, St Louis, Mo. Test compounds were dissolved in DMSO and were added to the incubation reaction minus GST-GK in a volume of 12 μL to yield a final DMSO concentration of 10%. This mix was pre-incubated in the temperature controlled chamber of a SPECTRAmax 250 microplate spectrophotometer (Molecular Devices Corporation, Sunnyvale, Calif.) for 10 minutes to allow temperature equilibrium and then the reaction was started by the addition of 20 μL GST-GK.
After addition of enzyme, the increase in optical density (OD) at 340 nm was monitored spectrophotometrically to determine the rate of change (OD340 per min). The GK activity (OD340/min) in control wells (10% DMSO minus GK activators) was compared with the activity in wells containing test GK activators, and the concentration of activator that produced a 50% increase in the activity of GK, i.e., the SC1.5, was calculated. The table below provides the in vitro glucokinase activity for the compounds in the Examples: […]

SMILES | SC1.5 average (concentration of activator that produced a 50% increase in the activity of GK) | fold activation @ 30 uM (30 uM test compound)
Cc1ccc(C)c(Oc2cnn(C(CC3CCCC3)C(=O)Nc3ccn(CC(C)(C)O)n3)c(=O)c2)c1C (stereo not shown) [Example 88, 3-Cyclopentyl-N-[1-(2-hydroxy-2-methyl-propyl)-1H-pyrazol-3-yl]-2-[6-oxo-4-(2,3,6-trimethyl-phenoxy)-6H-pyridazin-1-yl]-propionamide] | 0.204 µM | 
Cc1occc(=O)c1Oc1cnn(C(CC2CCCC2)C(=O)Nc2ccn(C[C@@H](O)CO)n2)c(=O)c1 (stereo partly drawn) [Example 97, 3-Cyclopentyl-N-[1-((R)-2,3-dihydroxy-propyl)-1H-pyrazol-3-yl]-2-[4-(2-methyl-4-oxo-4H-pyran-3-yloxy)-6-oxo-6H-pyridazin-1-yl]-propionamide] | 1.895 µM | 
COC(=O)c1ccc(NC(=O)C(CC2CCCC2)n2ncc(Oc3ccccc3C3CCCC3)cc2=O)nc1 (stereo not shown) [Example 66, 6-{3-Cyclopentyl-2-[4-(2-cyclopentyl-phenoxy)-6-oxo-6H-pyridazin-1-yl]-propionylamino}-nicotinic acid methyl ester] | 1.74 µM | 
CC(C)CC(C(=O)Nc1ccn(CC(C)(C)O)n1)n1ncc(Oc2ccccc2Cl)cc1=O (stereo not shown) [Example 134, 2-[4-(2-Chloro-phenoxy)-6-oxo-6H-pyridazin-1-yl]-4-methyl-pentanoic acid [1-(2-hydroxy-2-methyl-propyl)-1H-pyrazol-3-yl]-amide] | 0.693 µM | 
CC(C)(O)Cn1ccc(NC(=O)[C@H](CC2CCCC2)n2ncc(Oc3cccc4c3CCCC4)cc2=O)n1 [Example 17A, (S)-3-Cyclopentyl-N-[1-(2-hydroxy-2-methyl-propyl)-1H-pyrazol-3-yl]-2-[6-oxo-4-(5,6,7,8-tetrahydro-naphthalen-1-yloxy)-6H-pyridazin-1-yl]-propionamide] | 0.051 µM | 
O=C(Nc1nccs1)C(CC1CCCC1)n1ncc2ccccc2c1=O (stereo not shown) [Example 83, 3-Cyclopentyl-2-(1-oxo-1H-phthalazin-2-yl)-N-thiazol-2-yl-propionamide] | 8.783 µM | 
O=C(Nc1cnccn1)C(CC1CCCC1)n1ncc(Oc2ccccc2C(F)(F)F)cc1=O (stereo not shown) [Example 76, 3-Cyclopentyl-2-[6-oxo-4-(2-trifluoromethyl-phenoxy)-6H-pyridazin-1-yl]-N-pyrazin-2-yl-propionamide] | 0.376 µM | 
O=C(Nc1cnc(C(O)CO)cn1)C(CC1CCCC1)n1ncc(Oc2c(F)cccc2F)cc1=O (stereo in doubt) [Example 106, 3-Cyclopentyl-2-[4-(2,6-difluoro-phenoxy)-6-oxo-6H-pyridazin-1-yl]-N-[5-((R)-1,2-dihydroxy-ethyl)-pyrazin-2-yl]-propionamide] | 0.082 µM | 
Cc1ccc(Oc2cnn(C(CC3CCCC3)C(=O)Nc3ccn(C[C@@H](O)CO)n3)c(=O)c2)c2c1CCC2 (stereo partly drawn) [Example 93, 3-Cyclopentyl-N-[1-((R)-2,3-dihydroxy-propyl)-1H-pyrazol-3-yl]-2-[4-(7-methyl-indan-4-yloxy)-6-oxo-6H-pyridazin-1-yl]-propionamide] | 0.114 µM | 
CC(C)(O)Cn1ccc(NC(=O)C(CC2CCCC2)n2ncc(Oc3cccc(Oc4ccccc4)c3)cc2=O)n1 (stereo not shown) [Example 35, 3-Cyclopentyl-N-[1-(2-hydroxy-2-methyl-propyl)-1H-pyrazol-3-yl]-2-[6-oxo-4-(3-phenoxy-phenoxy)-6H-pyridazin-1-yl]-propionamide] | 2.173 µM | 
Cc1cc(NC(=O)C(CC2CCOCC2)n2ncc(Oc3c(F)cccc3F)cc2=O)nn1CC(C)O (stereo not shown) [Example 132, 2-[4-(2,6-Difluoro-phenoxy)-6-oxo-6H-pyridazin-1-yl]-N-[1-(2-hydroxy-propyl)-5-methyl-1H-pyrazol-3-yl]-3-(tetrahydro-pyran-4-yl)-propionamide] | > 30 µM | 1.18 fold
O=C(O)c1ccc(NC(=O)[C@@H](CC2CCCC2)n2ncc(Oc3cccc4c3CCCC4)cc2=O)nc1 [Example 72B, 6-{(R)-3-Cyclopentyl-2-[6-oxo-4-(5,6,7,8-tetrahydro-naphthalen-1-yloxy)-6H-pyridazin-1-yl]-propionylamino}-nicotinic acid] | 0.226 µM | 
COc1cnn(C(CC2CCCC2)C(=O)Nc2nccs2)c(=O)c1 (stereo not shown) [Example 80, 3-Cyclopentyl-2-(4-methoxy-6-oxo-6H-pyridazin-1-yl)-N-thiazol-2-yl-propionamide] | 3.208 µM | 
O=C(Nc1ccn(C[C@@H](O)CO)n1)C(CC1CCOCC1)n1ncc(Oc2c(F)cccc2F)cc1=O (stereo partly drawn) [Example 62, 2-[4-(2,6-difluoro-phenoxy)-6-oxo-6H-pyridazin-1-yl]-N-[1-((R)-2,3-dihydroxy-propyl)-1H-pyrazol-3-yl]-3-(tetrahydro-pyran-4-yl)-propionamide] | 0.373 µM | 

More lines, now with the values ahead:

SC1.5 average (concentration of activator that produced a 50% increase in the activity of GK) | fold activation @ 30 uM (30 uM test compound) | SMILES
0.428 µM |  | COc1cccc(Oc2cnn(C(CC3CCCC3)C(=O)Nc3ccn(CC(C)(C)O)n3)c(=O)c2)c1 (stereo not shown) [Example 7, 3-Cyclopentyl-N-[1-(2-hydroxy-2-methyl-propyl)-1H-pyrazol-3-yl]-2-[4-(3-methoxy-phenoxy)-6-oxo-6H-pyridazin-1-yl]-propionamide]
1.942 µM |  | O=C(Nc1ccn(CCO)n1)[C@@H](CC1CCCC1)n1ncc(Oc2c(F)cccc2F)cc1=O [Example 60B, (R)-3-Cyclopentyl-2-[4-(2,6-difluoro-phenoxy)-6-oxo-6H-pyridazin-1-yl]-N-[1-(2-hydroxy-ethyl)-1H-pyrazol-3-yl]-propionamide]
0.305 µM |  | CC(C)(O)Cn1ccc(NC(=O)C(CC2CCC2)n2ncc(Oc3c(F)cccc3F)cc2=O)n1 (stereo not shown) [Example 49, 3-Cyclobutyl-2-[4-(2,6-difluoro-phenoxy)-6-oxo-6H-pyridazin-1-yl]-N-[1-(2-hydroxy-2-methyl-propyl)-1H-pyrazol-3-yl]-propionamide]
1.596 µM |  | CC(C)(O)Cn1ccc(NC(=O)[C@@H](CC2CCCC2)n2ncc(Oc3c(F)cccc3F)cc2=O)n1 [Example 36B, (R)-3-Cyclopentyl-2-[4-(2,6-difluoro-phenoxy)-6-oxo-6H-pyridazin-1-yl]-N-[1-(2-hydroxy-2-methyl-propyl)-1H-pyrazol-3-yl]-propionamide]
0.566 µM |  | CC(C)(O)Cn1ccc(NC(=O)C(CC2CCCC2)n2ncc(Oc3cccc4cnccc34)cc2=O)n1 (stereo not shown) [Example 37, 3-Cyclopentyl-N-[1-(2-hydroxy-2-methyl-propyl)-1H-pyrazol-3-yl]-2-[4-(isoquinolin-5-yloxy)-6-oxo-6H-pyridazin-1-yl]-propionamide]
1.495 µM |  | CC(C)(O)Cn1ccc(NC(=O)C(CC2CCCC2)n2ncc(Cc3c(F)cccc3F)cc2=O)n1 (stereo not shown) [Example 48, 3-Cyclopentyl-2-[4-(2,6-difluoro-benzyl)-6-oxo-6H-pyridazin-1-yl]-N-[1-(2-hydroxy-2-methyl-propyl)-1H-pyrazol-3-yl]-propionamide]
0.634 µM |  | CC(C)(O)Cn1ccc(NC(=O)C(CC2CCCC2)n2ncc(Oc3cccc(F)c3)cc2=O)n1 (stereo not shown) [Example 18, 3-Cyclopentyl-2-[4-(3-fluoro-phenoxy)-6-oxo-6H-pyridazin-1-yl]-N-[1-(2-hydroxy-2-methyl-propyl)-1H-pyrazol-3-yl]-propionamide]
